Laboratory results taken from PubChem BioAssay (NCI).
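Test compounds were applied to cells in 96-well plates for 48 hours at 5 doses. Abbreviation: GI50, concentration required for 50% inhibition of growth. The concentration for full growth arrest is given as TGI.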

Assays:
Experiment in all cases: NCI-60 cell line screen, 48 h
A498 renal = tested on: A498 renal
HT29 colon = tested on: HT29 colon
K-562 leukemia = tested on: K-562 leukemia
NCI-H522 lung = tested on: NCI-H522 lung
NCI/ADR-RES ovarian = tested on: NCI/ADR-RES ovarian
OVCAR-4 ovarian = tested on: OVCAR-4 ovarian
SF-268 CNS = tested on: SF-268 CNS
SF-539 CNS = tested on: SF-539 CNS
SK-MEL-5 melanoma = tested on: SK-MEL-5 melanoma
SR leukemia = tested on: SR leukemia

`Cc1cc(C(=O)N2CCN(C)CC2)c2c(=O)n(-c3ccccc3)c(=O)n(CC(O)CN3CCN(c4ncccn4)CC3)c2n1` (stereo not given) was tested, and the GI50 (A498 renal) was greater than 100 µM, the TGI (A498 renal) was greater than 100 µM and the GI50 (HT29 colon) was greater than 100 µM. It also gave a TGI (HT29 colon) greater than 100 µM, a GI50 (K-562 leukemia) greater than 100 µM and a TGI (K-562 leukemia) greater than 100 µM. The GI50 (NCI-H522 lung) was greater than 100 µM, the TGI (NCI-H522 lung) was greater than 100 µM and the GI50 (NCI/ADR-RES ovarian) was greater than 100 µM. For the same molecule, the TGI (NCI/ADR-RES ovarian) was greater than 100 µM, the GI50 (OVCAR-4 ovarian) was greater than 100 µM and the TGI (OVCAR-4 ovarian) was greater than 100 µM. It also gave a GI50 (SF-268 CNS) greater than 100 µM, a TGI (SF-268 CNS) greater than 100 µM and a GI50 (SF-539 CNS) greater than 100 µM. The TGI (SF-539 CNS) was greater than 100 µM, the GI50 (SK-MEL-5 melanoma) was greater than 100 µM and the TGI (SK-MEL-5 melanoma) was greater than 100 µM. For the same molecule, the GI50 (SR leukemia) was 9.01 µM and the TGI (SR leukemia) was greater than 100 µM.

`CCOP(=O)(CCN1CCN(CCCCCOc2cc3c(cc2OC)C(=O)N2CCC[C@H]2C=N3)CC1)OCC` was tested, and the GI50 (A498 renal) was 15 µM, the TGI (A498 renal) was 43 µM and the GI50 (HT29 colon) was 6.84 µM. For the same molecule, the TGI (HT29 colon) was greater than 100 µM, the GI50 (K-562 leukemia) was 2.37 µM and the TGI (K-562 leukemia) was greater than 100 µM. It also gave a GI50 (NCI-H522 lung) of 1.93 µM, a TGI (NCI-H522 lung) of 7.8 µM and a GI50 (NCI/ADR-RES ovarian) greater than 100 µM. For the same molecule, the TGI (NCI/ADR-RES ovarian) was greater than 100 µM, the GI50 (OVCAR-4 ovarian) was 14.9 µM and the TGI (OVCAR-4 ovarian) was 57.1 µM. The GI50 (SF-268 CNS) was 3.53 µM, the TGI (SF-268 CNS) was 49.6 µM and the GI50 (SF-539 CNS) was 3.6 µM. For the same molecule, the TGI (SF-539 CNS) was 17.7 µM, the GI50 (SK-MEL-5 melanoma) was 3.62 µM and the TGI (SK-MEL-5 melanoma) was 23.8 µM. It also gave a GI50 (SR leukemia) of 1.39 µM and a TGI (SR leukemia) of 4.25 µM.
